This is an account of results in patent US20180333461A1, “METHODS AND COMPOSITIONS FOR TREATING OR PREVENTING FLAVIVIRUS INFECTIONS” (THE UNIVERSITY OF QUEENSLAND, priority 2014, published 2018).

“Also recorded” adds a separate entry of the source.

The subject of assay [1] is bone marrow-derived macrophages (BMM). Description: CSF-1R down-modulation assay on BMMs (flow cytometry). Format: cell-based, mouse. The note with it: 1 hour treatment. On the procedure:
NS1 and LPS were pre-incubated for 30 minutes with or without polymyxin B, then added to PBMC and incubated for 24 hours. The final concentration of polymyxin B was 25 μg/mL, with varying concentrations of LPS (0.1, 1, 10 ng/mL) and NS1 (5, 10, 20 and 40 μg/mL). Released IL-6 was measured by ELISA. […] NS1 and LPS were pre-incubated for 30 minutes with or without polymyxin B then added to BMMs that had been starved of CSF1 overnight. The final concentration of polymyxin B was 25 μg/mL, with LPS (10-fold dilutions from 100 ng/mL) and NS1 (2′-fold dilutions from 10 μg/mL). After 1 hour of treatment, CSF1R levels were determined by flow cytometry, and the % of cells with high levels of receptor are shown. Data are the mean±SD from three (A) or five (B) independent experiments.
FIG. 3 is a graphical representation showing that NS1 from several sources has immunostimulatory activity. (A) NS1 immuno-depletion prevents the down-modulation of surface CSF1R by S2 cell-expressed NS1. […] The final concentration of 5 μg/mL NS1 (as quantified by capture-ELISA) represents approximately 4-fold higher levels than produced in the CHO cell medium. […]
FIG. 5 is a graphical representation showing that NS1 activates cells via TLR4. […] CSF1R on wild-type C57BL/6 BMM (WT), tlr4^−/− and MyD88^−/−/trif^−/− BMMs was measured after 1 hour treatment with CSF1 (10^4 U/mL), LPS (100 ng/mL) and NS1 (10 μg/mL). […]
On the technique in general: Flow cytometry measures light scatter and fluorescence of single cells or particles in a stream.

The test system of the next assay is human PBMC. Description: IL-6 secretion by human PBMC (ELISA), with or without polymyxin B pre-incubation. It is filed as cell-based. To be noted: 24 hours. On the procedure:
FIG. 1 is a graphical representation showing that Dengue NS1 activates human and mouse innate immune responses. (A) NS1 induces IL-6 secretion by human PBMC. Cells were treated for 24 hrs. with LPS (100 ng/mL), NS1 (40 μg/mL), or an analogous NS1 sample immune-depleted with anti-NS1 or anti-E antibody. IL-6 was measured by ELISA. Data shown is mean±SD of three donors. The inset immunoblot is of the supernatant fraction following immuno-depletion using anti-NS1 antibody or isotype-matched control antibody. […] ELAM promoter activity was monitored as in B, in response to LPS (100 ng/mL), NS1 (40 μg/mL), NS1 immuno-depleted using anti-NS1 antibody or isotype-matched control antibody (confirmed in western blot inset).
NS1 and LPS were pre-incubated for 30 minutes with or without polymyxin B, then added to PBMC and incubated for 24 hours. […] Released IL-6 was measured by ELISA. […] After 1 hour of treatment, CSF1R levels were determined by flow cytometry, and the % of cells with high levels of receptor are shown. […]
Human PBMCs from healthy donors were seeded at 1×10^6 cells per well in 12 well plates prior to incubation with NS1 or LPS. […] The level of IL-6 production was quantitated ELISA (R & D Systems) according to the protocol recommended by the manufacturer.
For orientation: In an ELISA, binding on a coated surface is turned into a signal by an enzyme label.

For polymyxin B, in assay [1] (polymyxin B 25 μg/mL pre-incubated with LPS 30 min), the “Effect on LPS-induced loss of surface CSF1R on BMMs” value was “sensitive”. Further, the “Effect on NS1-induced loss of surface CSF1R on BMMs” value in assay [1] (polymyxin B 25 μg/mL pre-incubated with NS1 30 min) is on record as “does not block”. Also, in the assay on human PBMC (polymyxin B 25 μg/mL pre-incubated with LPS 30 min, LPS ≤10 ng/mL), the “Effect on LPS-induced IL-6 in PBMC” value is “inhibited”. Also, the “Effect on NS1-induced IL-6 in PBMC” value in the assay with human PBMC (polymyxin B 25 μg/mL pre-incubated with NS1 (5-40 μg/mL) 30 min) is recorded as “does not block; also recorded: unaffected”.
